Source: publication PMC10515640, “Structure-Based Optimization of Covalent, Small-Molecule Stabilizers of the 14-3-3σ/ERα Protein–Protein Interaction from Nonselective Fragments” (Journal of the American Chemical Society, 2023)

Tests used:
14-3-3σ = target: T1, 14-3-3σ (Homo sapiens, UniProt P31947); experiment: Mass spectrometry dose response, compound binding to 14-3-3σ in the absence of peptide (apo); settings: 100 nM compound, 100 nM 14-3-3σ
T1 construct: The 14-3-3 σ isoform (full-length for mass spectrometry and fluorescence anisotropy assays, ΔC for crystallography); made in house; host or cells: E. coli Rosetta 2(DE3)pLysS, pPROEX HTb vector
T1 sequence (P31947 1-248): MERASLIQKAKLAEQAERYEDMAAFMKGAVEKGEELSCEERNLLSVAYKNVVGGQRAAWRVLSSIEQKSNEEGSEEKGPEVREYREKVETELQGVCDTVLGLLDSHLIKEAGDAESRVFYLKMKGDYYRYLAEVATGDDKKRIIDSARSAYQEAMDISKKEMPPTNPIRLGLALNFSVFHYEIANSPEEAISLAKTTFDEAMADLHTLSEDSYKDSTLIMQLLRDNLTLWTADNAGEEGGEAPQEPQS
Method in brief: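 Covalent binding of compounds to Cys38 of full-length wild type human 14-3-3σ (100 nM) was measured by LC-MS without peptide present. Compounds from 50 mM DMSO stocks were serially diluted 3-fold and 1000 nl transferred to plates in TRIS buffer (10 mM, pH 8.0), 50 μl per well. Samples were desalted on a BEH-C4 column and analysed on a Xevo G2-XS Q-Tof at several time points.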

14-3-3σ/ERα [1] = target: T2, 14-3-3σ/ERα (Homo sapiens, UniProt P03372+P31947); experiment: Mass spectrometry dose response, compound binding to 14-3-3σ in the presence of ERα phosphopeptide; settings: 100 nM compound, 100 nM 14-3-3σ, ERα-peptide 2 µM
T2 construct: The 14-3-3 σ isoform (full-length for mass spectrometry and fluorescence anisotropy assays, ΔC for crystallography); made in house; host or cells: E. coli Rosetta 2(DE3)pLysS, pPROEX HTb vector
Method in brief: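 Covalent labeling of Cys38 on 14-3-3σ was tracked by LC-MS on a Waters Acquity UPLC/Xevo G2-XS Q-Tof, with samples desalted on a Protein BEH-C4 column. Full-length wild type 14-3-3σ (100 nM) plus ERα phosphopeptide was mixed with compound in 10 mM TRIS, pH 8.0, at 50 μl per well. Percent bound was measured at several time points.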

14-3-3σ/C-RAF [2] = target: T3, 14-3-3σ/C-RAF (Homo sapiens, UniProt P31947); experiment: Mass spectrometry dose response, compound binding to 14-3-3σ in the presence of C-RAF phosphopeptide; settings: 100 nM compound, 100 nM 14-3-3σ, C-RAF peptide 18 µM
T3 construct: The 14-3-3 σ isoform (full-length for mass spectrometry and fluorescence anisotropy assays, ΔC for crystallography); made in house; host or cells: E. coli Rosetta 2(DE3)pLysS, pPROEX HTb vector
T3 sequence (P31947 1-248): T1 sequence (P31947 1-248)
Method in brief: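 Covalent binding of compounds to the native Cys38 of 14-3-3σ was monitored by LC-MS on a Waters Acquity UPLC/Xevo G2-XS Q-Tof, with samples desalted on a BEH-C4 column. Full-length wild type 14-3-3σ (100 nM) with C-RAF peptide in TRIS buffer (10 mM, pH 8.0) was incubated with compound dose series at room temperature.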

14-3-3σ/ERα [3] = target: T2, 14-3-3σ/ERα; experiment: Fluorescence anisotropy compound titration, FAM-labeled ERα peptide; format: binding; settings: 10 nM ERα-FAM labeled peptide, 1 µM 14-3-3σ, overnight incubation (24 h); read-out: EC50 value ERα (FA compound titration)
Method in brief: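 Fluorescence anisotropy compound titration measuring stabilization of the 14-3-3σ/ERα interaction: compounds were titrated in a 2-fold dilution series (starting at 500 or 1000 µM) into a mix of 10 nM fluorescein-labeled ERα peptide and 1 µM 14-3-3σ (about EC25 of the complex) in HEPES buffer with 1% DMSO, read after overnight incubation at room temperature; EC50 from 4PL fitting.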

14-3-3σ/C-RAF [4] = target: T3, 14-3-3σ/C-RAF; experiment: Fluorescence anisotropy compound titration, FAM-labeled C-RAF peptide; format: binding; settings: 10 nM C-RAF-FAM labeled peptide, 5 µM 14-3-3σ, overnight incubation; read-out: EC50 value C-RAF (FA compound titration)
Description: Two orthogonal assays were developed for screening. For the primary assay, mass spectrometry (MS) was used to monitor the formation of the covalent bond between the compound and the native cysteine (Cys38 on 14-3-3σ) (Figure 1D). The assay was first performed in the absence of peptide to determine binding to 14-3-3σ only (apo screening, D1) and then in the presence of both 14-3-3σ and the peptide as an indication of how much the peptide stabilized compound binding (D2). […] As a secondary assay, fluorescence anisotropy (FA) was used. In this case, compounds were titrated to mixtures of 14-3-3σ and FAM-labeled peptides. […] Thus, the two assays are highly complementary; the MS assay reports on compound binding and the FA assay reports on peptide binding. […]
diluted in buffer (10 mM HEPES, pH 7.5, 150 mM NaCl, 0.1% Tween20, 1 mg/mL Bovine Serum Albumin (BSA; Sigma-Aldrich). Final DMSO in the assay was always 1%. Dilution series of 14-3-3 proteins or compounds were made in […]
Compound titrations were made by titrating the compound in a 2-fold dilution series (starting at 500 or 1000 µM) to a mix of fluorescein-labeled peptide (10 nM) and 14-3-3σ (concentration at approximately the EC20 to EC30 value of the protein-peptide complex; 1 µM for ERα and 5 µM for C-RAF). Using the ~EC25 value makes the assay sensitive for measuring an increase in PPI formation. Fluorescence anisotropy measurements were performed directly and after overnight incubation at room temperature. […]
Wells containing only FAM-peptide were used to set as G-factor at 35 mP. Data reported are at endpoint. EC50 and apparent Kd values were obtained from fitting the data with a four-parameter logistic model (4PL) in GraphPad Prism 7 for Windows. Data was obtained and averaged based on either three (compound titrations) or two (protein titrations) independent experiments.

Row | SMILES | Percentage (%) bound of compound to 14-3-3σ, APO 1h (14-3-3σ) | Percentage (%) bound of compound to 14-3-3σ, APO 8h (14-3-3σ) | Percentage (%) bound of compound to 14-3-3σ, APO 16h (14-3-3σ) | Percentage (%) bound of compound to 14-3-3σ, APO 24h (14-3-3σ) | Percentage (%) bound of compound to 14-3-3σ, ERα 1h (14-3-3σ/ERα [1]) | Percentage (%) bound of compound to 14-3-3σ, ERα 8h (14-3-3σ/ERα [1]) | Percentage (%) bound of compound to 14-3-3σ, ERα 16h (14-3-3σ/ERα [1]) | Percentage (%) bound of compound to 14-3-3σ, ERα 24h (14-3-3σ/ERα [1]) | Percentage (%) bound of compound to 14-3-3σ, CRAF 1h (14-3-3σ/C-RAF [2]) | Percentage (%) bound of compound to 14-3-3σ, CRAF 8h (14-3-3σ/C-RAF [2]) | Percentage (%) bound of compound to 14-3-3σ, CRAF 24h (14-3-3σ/C-RAF [2]; 24h) | Percentage (%) bound of compound to 14-3-3σ, CRAF 24h (14-3-3σ/C-RAF [2]; head prints 24h) | EC50 (14-3-3σ/ERα [3]) | EC50 (14-3-3σ/C-RAF [4])
1 | CC(C)(Oc1ccc(Cl)cc1)C(=O)N1CCC(CCCNC(=O)CCl)CC1 [compound 29] | 0% | 0% | 0% | 0% | 0.4% | 1.0% | 3.1% | 11.0% | 1.0% | 1.0% | 18.9% | 7.1% | 9 ± 0.4 µM | 142 ± 40 µM
2 | CC(C)(Oc1ccc(Cl)cc1)C(=O)N1CCC(CCNC(=O)CCl)CC1 [compound 28] | 1.0% | 1.0% | 1.9% | 1.9% | 0.3% | 1.5% | 4.2% | 10.9% | 3.1% | 7.5% | 40.1% | 22.1% | 24 ± 16 µM | 40 ± 1 µM
3 | O=C(CCl)NCC1CCN(C(=O)C2(Nc3ccccc3)CCCC2)CC1 [compound 120] | 0% | 0% | 0% | 0% | 0% | 0% | 0% | 4.5% | 0% | 0% | 0% | 0% | > 150 µM | > 150 µM
4 | O=C(CCl)NCC1CCN(C(=O)C2(Oc3ccc(Cl)cc3)CC2)CC1 [compound 93] | 0% | 0% | 0% | 0% | 0% | 0.9% | 1.1% | 1.7% | 0.1% | 0.1% | 2.3% | 0.1% | 68 ± 2 µM | > 150 µM
5 | O=C(CCl)N1CC2(CCN(C(=O)C3(Nc4ccc(Cl)cc4)CCOCC3)CC2)C1 [compound 160] | 0% | 0% | 1.0% | 5.8% | 6.9% | 8.6% | 48.4% | 76.6% | 0.4% | 1.9% | 8.4% | 3.8% | 16 ± 1 µM | > 150 µM
